Data published in PubChem BioAssay (NCI).
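The compound was tested at five concentrations on cells cultured in 96-well plates, with a 48-hour exposure period. TGI denotes the concentration required for complete inhibition of growth.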

How the values were obtained:
Assay in all cases: DTP human tumour cell line panel, 48 h
[1] = system: 786-0 renal
[2] = system: A498 renal
[3] = system: ACHN renal
[4] = system: CAKI-1 renal
[5] = system: CCRF-CEM leukemia
[6] = system: DU-145 prostate
[7] = system: EKVX NSCLC
[8] = system: HCC-2998 colon
[9] = system: HCT-116 colon
[10] = system: HCT-15 colon
[11] = system: HL-60(TB) leukemia
[12] = system: HOP-62 NSCLC
[13] = system: HOP-92 NSCLC
[14] = system: HS 578T breast
[15] = system: HT29 colon
[16] = system: IGROV1 ovarian
[17] = system: K-562 leukemia
[18] = system: KM12 colon
[19] = system: LOX IMVI melanoma
[20] = system: M14 melanoma
[21] = system: MCF7 breast
[22] = system: MDA-MB-231 breast
[23] = system: MDA-MB-435
[24] = system: MDA-N
[25] = system: MOLT-4 leukemia
[26] = system: NCI-H226 lung
[27] = system: NCI-H23 lung
[28] = system: NCI-H460 lung
[29] = system: NCI-H522 lung
[30] = system: NCI/ADR-RES ovarian
[31] = system: OVCAR-3 ovarian
[32] = system: OVCAR-4 ovarian
[33] = system: OVCAR-5 ovarian
[34] = system: OVCAR-8 ovarian
[35] = system: PC-3 prostate
[36] = system: RPMI-8226 leukemia
[37] = system: RXF 393 renal
[38] = system: SF-268 CNS
[39] = system: SF-295 CNS
[40] = system: SF-539 CNS
[41] = system: SK-MEL-2 melanoma
[42] = system: SK-MEL-28 melanoma
[43] = system: SK-MEL-5 melanoma
[44] = system: SK-OV-3 ovarian
[45] = system: SR leukemia
[46] = system: SW-620 colon
[47] = system: T-47D breast
[48] = system: TK-10 renal
[49] = system: U251 CNS
[50] = system: UACC-257 melanoma
[51] = system: UO-31 renal
[52] = system: A549 NSCLC
[53] = system: BT-549 breast
[54] = system: COLO 205 colon
[55] = system: MALME-3M melanoma
[56] = system: SN12C renal
[57] = system: SNB-19 CNS
[58] = system: SNB-75 CNS
[59] = system: UACC-62 melanoma

## O=[N+]([O-])c1ccc(/C=N/n2c(CCc3n[nH]c(=S)n3/N=C/c3ccc([N+](=O)[O-])o3)n[nH]c2=S)o1
[1]
  TGI: 31.9 µM
[2]
  TGI: > 100 µM
[3]
  TGI: 63.4 µM
[4]
  TGI: 44.8 µM
[5]
  TGI: 67.7 µM
[6]
  TGI: 29.7 µM
[7]
  TGI: > 100 µM
[8]
  TGI: 33 µM
[9]
  TGI: 29 µM
[10]
  TGI: 32.7 µM
[11]
  TGI: 97.7 µM
[12]
  TGI: 69.8 µM
[13]
  TGI: 33.6 µM
[14]
  TGI: 62.2 µM
[15]
  TGI: 86.4 µM
[16]
  TGI: > 100 µM
[17]
  TGI: > 100 µM
[18]
  TGI: 64.4 µM
[19]
  TGI: 50.6 µM
[20]
  TGI: 36.1 µM
[21]
  TGI: 39.7 µM
[22]
  TGI: 52.4 µM
[23]
  TGI: 35.3 µM
[24]
  TGI: 26.7 µM
[25]
  TGI: 63.9 µM
[26]
  TGI: > 100 µM
[27]
  TGI: 34.7 µM
[28]
  TGI: > 100 µM
[29]
  TGI: 47.3 µM
[30]
  TGI: 88.7 µM
[31]
  TGI: 54.2 µM
[32]
  TGI: 36.7 µM
[33]
  TGI: > 100 µM
[34]
  TGI: > 100 µM
[35]
  TGI: > 100 µM
[36]
  TGI: > 100 µM
[37]
  TGI: 32.1 µM
[38]
  TGI: 50.7 µM
[39]
  TGI: > 100 µM
[40]
  TGI: > 100 µM
[41]
  TGI: 42.9 µM
[42]
  TGI: 31.5 µM
[43]
  TGI: 33.3 µM
[44]
  TGI: > 100 µM
[45]
  TGI: 80.7 µM
[46]
  TGI: 32.7 µM
[47]
  TGI: 62.8 µM
[48]
  TGI: > 100 µM
[49]
  TGI: 50 µM
[50]
  TGI: 83.8 µM
[51]
  TGI: 89.9 µM

## N#Cc1c(N)nc2c(N=Nc3ccccc3)c(N)nn2c1Nc1ccccc1
[1]
  TGI: 38.5 µM
[2]
  TGI: 59.1 µM
[52]
  TGI: 46.9 µM
[3]
  TGI: 61.9 µM
[53]
  TGI: 50.6 µM
[4]
  TGI: 29.2 µM
[5]
  TGI: > 100 µM
[54]
  TGI: 30.2 µM
[6]
  TGI: 39.8 µM
[7]
  TGI: > 100 µM
[9]
  TGI: 27 µM
[10]
  TGI: > 100 µM
[11]
  TGI: 6.56 µM
[12]
  TGI: 39.1 µM
[13]
  TGI: 31.6 µM
[15]
  TGI: 31.4 µM
[16]
  TGI: 29.3 µM
[17]
  TGI: > 100 µM
[18]
  TGI: 18.1 µM
[19]
  TGI: 10.5 µM
[20]
  TGI: 31.5 µM
[55]
  TGI: 49.7 µM
[22]
  TGI: 47.6 µM
[23]
  TGI: 39.6 µM
[24]
  TGI: 38.5 µM
[25]
  TGI: 7.97 µM
[26]
  TGI: 53.9 µM
[27]
  TGI: 21.6 µM
[28]
  TGI: 44.3 µM
[29]
  TGI: 39.9 µM
[30]
  TGI: 53.9 µM
[31]
  TGI: 35.1 µM
[32]
  TGI: 46.4 µM
[33]
  TGI: 57.7 µM
[34]
  TGI: 14.2 µM
[36]
  TGI: 16.2 µM
[37]
  TGI: 29.2 µM
[38]
  TGI: 56.9 µM
[39]
  TGI: 59.9 µM
[40]
  TGI: 47.2 µM
[41]
  TGI: 48.2 µM
[42]
  TGI: 24.2 µM
[43]
  TGI: 32.6 µM
[56]
  TGI: 27.7 µM
[57]
  TGI: 39.9 µM
[58]
  TGI: 70.3 µM
[45]
  TGI: 6.15 µM
[46]
  TGI: 50.3 µM
[48]
  TGI: 52.6 µM
[49]
  TGI: 24.6 µM
[50]
  TGI: 38.9 µM

## Cc1ccc(S(=O)(=O)Nn2c(C)cc3ccc(S(=O)(=O)Nc4ccccc4[N+](=O)[O-])cc3c2=O)cc1
[1]
  TGI: > 100 µM
[52]
  TGI: > 100 µM
[3]
  TGI: > 100 µM
[53]
  TGI: > 100 µM
[4]
  TGI: > 100 µM
[5]
  TGI: > 100 µM
[54]
  TGI: 44.1 µM
[6]
  TGI: > 100 µM
[7]
  TGI: > 100 µM
[8]
  TGI: > 100 µM
[9]
  TGI: > 100 µM
[10]
  TGI: > 100 µM
[11]
  TGI: > 100 µM
[12]
  TGI: > 100 µM
[13]
  TGI: > 100 µM
[14]
  TGI: > 100 µM
[15]
  TGI: > 100 µM
[16]
  TGI: > 100 µM
[17]
  TGI: > 100 µM
[18]
  TGI: > 100 µM
[19]
  TGI: > 100 µM
[20]
  TGI: > 100 µM
[55]
  TGI: > 100 µM
[21]
  TGI: > 100 µM
[22]
  TGI: > 100 µM
[23]
  TGI: > 100 µM
[24]
  TGI: > 100 µM
[25]
  TGI: > 100 µM
[26]
  TGI: > 100 µM
[27]
  TGI: > 100 µM
[28]
  TGI: > 100 µM
[29]
  TGI: > 100 µM
[30]
  TGI: > 100 µM
[31]
  TGI: > 100 µM
[32]
  TGI: > 100 µM
[33]
  TGI: > 100 µM
[34]
  TGI: > 100 µM
[35]
  TGI: > 100 µM
[36]
  TGI: > 100 µM
[38]
  TGI: > 100 µM
[39]
  TGI: > 100 µM
[40]
  TGI: > 100 µM
[41]
  TGI: > 100 µM
[42]
  TGI: > 100 µM
[44]
  TGI: > 100 µM
[56]
  TGI: > 100 µM
[57]
  TGI: > 100 µM
[58]
  TGI: > 100 µM
[45]
  TGI: > 100 µM
[46]
  TGI: > 100 µM
[48]
  TGI: > 100 µM
[49]
  TGI: > 100 µM
[50]
  TGI: > 100 µM
[59]
  TGI: > 100 µM
[51]
  TGI: > 100 µM

## COC(=N)c1ncn(Cc2ccccc2)c1N
[1]
  TGI: > 100 µM
[2]
  TGI: > 100 µM
[52]
  TGI: > 100 µM
[3]
  TGI: > 100 µM
[4]
  TGI: > 100 µM
[5]
  TGI: > 100 µM
[54]
  TGI: > 100 µM
[6]
  TGI: > 100 µM
[7]
  TGI: > 100 µM
[8]
  TGI: > 100 µM
[9]
  TGI: > 100 µM
[10]
  TGI: > 100 µM
[12]
  TGI: > 100 µM
[13]
  TGI: > 100 µM
[14]
  TGI: > 100 µM
[15]
  TGI: > 100 µM
[16]
  TGI: > 100 µM
[17]
  TGI: > 100 µM
[18]
  TGI: > 100 µM
[19]
  TGI: > 100 µM
[20]
  TGI: > 100 µM
[55]
  TGI: > 100 µM
[21]
  TGI: > 100 µM
[22]
  TGI: > 100 µM
[23]
  TGI: > 100 µM
[24]
  TGI: > 100 µM
[26]
  TGI: > 100 µM
[27]
  TGI: > 100 µM
[28]
  TGI: > 100 µM
[29]
  TGI: > 100 µM
[30]
  TGI: > 100 µM
[31]
  TGI: > 100 µM
[32]
  TGI: > 100 µM
[33]
  TGI: > 100 µM
[34]
  TGI: > 100 µM
[35]
  TGI: > 100 µM
[36]
  TGI: > 100 µM
[37]
  TGI: > 100 µM
[38]
  TGI: > 100 µM
[39]
  TGI: > 100 µM
[40]
  TGI: > 100 µM
[41]
  TGI: > 100 µM
[42]
  TGI: > 100 µM
[43]
  TGI: > 100 µM
[44]
  TGI: > 100 µM
[56]
  TGI: > 100 µM
[57]
  TGI: > 100 µM
[58]
  TGI: > 100 µM
[46]
  TGI: > 100 µM
[47]
  TGI: > 100 µM
[48]
  TGI: > 100 µM
[49]
  TGI: > 100 µM
[50]
  TGI: > 100 µM
[59]
  TGI: > 100 µM
